pIC50: −log10 of the molar value. Counter-ions that a name gives are not always drawn.

The target of the assay is T1, cannabinoid 1 receptor (hCB1R) (Homo sapiens, UniProt P21554).
T1 construct: expressed in transfected cells; host or cells: HEK293
T1 sequence (P21554 whole entry): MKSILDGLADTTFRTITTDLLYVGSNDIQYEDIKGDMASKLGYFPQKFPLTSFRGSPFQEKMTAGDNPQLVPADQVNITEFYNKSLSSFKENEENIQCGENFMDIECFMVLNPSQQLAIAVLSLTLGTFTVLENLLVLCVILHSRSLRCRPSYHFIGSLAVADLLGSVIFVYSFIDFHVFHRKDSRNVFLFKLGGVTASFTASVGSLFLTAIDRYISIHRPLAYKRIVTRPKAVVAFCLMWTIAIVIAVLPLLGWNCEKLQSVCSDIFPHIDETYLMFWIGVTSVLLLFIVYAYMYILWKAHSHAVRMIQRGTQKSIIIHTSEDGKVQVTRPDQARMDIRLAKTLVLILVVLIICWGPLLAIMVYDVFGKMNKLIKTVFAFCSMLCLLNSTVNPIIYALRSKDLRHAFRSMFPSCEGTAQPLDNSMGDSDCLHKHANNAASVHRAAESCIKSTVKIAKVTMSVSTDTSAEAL
Kind of assay: In vitro functional assay with recombinant cells (FLIPR), CB1. In kind it is cell-based. As to conditions: recombinant HEK293 cells expressing CB1 and G-protein; intracellular Ca2+ change after reference agonist, 20 min preincubation; read-out: hCB1R: FLIPR; IC50. As for the experimental part: In vitro functional assays with recombinant cells:
Function-testing assays were performed by means of the FLIPR technique (“Fluorometric Imaging Plate Reader”, Molecular Devices Corp.).
To this end, ligand-induced changes in the intracellular concentration of Ca^2+ in recombinant HEK293 cells, which expressed both a cannabinoid receptor (CB1 or CB2) and G-protein Galphal6, were determined. For the studies, cells were sown into 96-well microtiter plates (60 000 cells/well) and left to grow overnight. The medium was removed and the cells were incubated in buffer which contained the fluorescent dye Fluo-4. After this loading with dye, the cells were washed, test substance was added dissolved in buffer, the mixture was incubated for 20 minutes, a known cannabinoid receptor agonist as a reference agonist was added in buffer and, finally, the changes in the intracellular Ca^2+ concentration were measured in the FLIPR unit.
Results were presented as the percentage change relative to the control (0%: analogous experiment without test substance and without reference agonist, i.e. only with buffer; 100%: analogous experiment without test substance, but with reference agonist in excess), and used to calculate dose/action curves, and IC50 values were determined.
The values of the functional assay compared to the cannabinoid 1 receptor including illustrative selectivities compared to the cannabinoid 2 receptor can be taken from table 1 which follows.
Take `COC(=O)c1ccc(NC(=O)Nc2cc(F)ccc2CN2C(=O)N(c3ccc(C#N)c(C(F)(F)F)c3)C(=O)C2(C)C)cc1` [Example 17, Methyl 4-(3-{2-[3-(4-cyano-3-trifluoromethylphenyl)-5,5-dimethyl-2,4-dioxoimidazolidin-1-ylmethyl]-5-fluorophenyl}ureido)benzoate]: the pIC50 is 8.00. On to `CC1(C)C(=O)N(c2ccc(F)c(C(F)(F)F)c2)C(=O)N1Cc1ccc(F)cc1NC(=O)Nc1ccc(C(=O)NS(=O)(=O)C2CC2)cc1` [Example 65, N-[4-(3-{5-fluoro-2-[3-(4-fluoro-3-trifluoromethylphenyl)-5,5-dimethyl-2,4-dioxoimidazolidin-1-ylmethyl]phenyl}ureido)benzoyl]cyclopropanesulfonamide], for which the pIC50 is 7.38. Consider `CC1(C)C(=O)N(c2ccc(F)c(C(F)(F)F)c2)C(=O)N1Cc1ccc(Cl)cc1NC(=O)Nc1ccc(S(N)(=O)=O)cc1` [Example 69, 4-(3-{5-chloro-2-[3-(4-fluoro-3-trifluoromethylphenyl)-5,5-dimethyl-2,4-dioxoimidazolidin-1-ylmethyl]phenyl}ureido)benzenesulfonamide], for which the pIC50 is 7.96. For `CC1(C)C(=O)N(c2ccc(C#N)c(C3CC3)c2)C(=O)N1Cc1ccc(F)cc1NC(=O)Nc1ccc(S(C)(=O)=O)cc1` [Example 30, 1-{2-[3-(4-Cyano-3-cyclopropylphenyl)-5,5-dimethyl-2,4-dioxoimidazolidin-1-ylmethyl]-5-fluorophenyl}-3-(4-methanesulfonylphenyl)urea], the pIC50 was 7.96.

Turning to `CC1(C)C(=O)N(c2ccc(C#N)c(C(F)(F)F)c2)C(=O)N1Cc1ccc(F)cc1NC(=O)Nc1ccc(SCC(=O)O)cc1` [Example 50, [4-(3-{2-[3-(4-Cyano-3-trifluoromethylphenyl)-5,5-dimethyl-2,4-dioxoimidazolidin-1-ylmethyl]-5-fluorophenyl}ureido)phenylsulfanyl]acetic acid], the pIC50 is 7.89. As to `CC1(C)C(=O)N(c2ccc(C#N)c(C(F)(F)F)c2)C(=O)N1Cc1ccc(F)cc1NC(=O)Nc1ccc(O)cc1` [Example 41, 1-{2-[3-(4-Cyano-3-trifluoromethylphenyl)-5,5-dimethyl-2,4-dioxo-imidazolidin-1-ylmethyl]-5-fluorophenyl}-3-(4-hydroxyphenyl)urea], the pIC50 is 8.40.

`CSc1ccc(NC(=O)Nc2cc(F)ccc2CN2C(=O)N(c3ccc(C#N)c(C4CC4)c3)C(=O)C2(C)C)cc1` [Example 30.1, 1-{2-[3-(4-cyano-3-cyclopropylphenyl)-5,5-dimethyl-2,4-dioxoimidazolidin-1-ylmethyl]-5-fluorophenyl}-3-(4-methylsulfanylphenyl)urea]: the pIC50 was 7.92. Turning to `CC1(C)C(=O)N(c2ccc(C#N)c(C3CC3)c2)C(=O)N1Cc1ccc(F)cc1NC(=O)Nc1ccc(S(=O)(=O)O)cc1` [Example 29, 4-(3-{2-[3-(4-cyano-3-cyclopropylphenyl)-5,5-dimethyl-2,4-dioxo-imidazolidin-1-ylmethyl]-5-fluorophenyl}ureido)benzenesulfonic acid], the pIC50 was 7.16. In the case of `CC1(C)C(=O)N(c2ccc(F)c(C(F)(F)F)c2)C(=O)N1Cc1ccc(F)cc1NC(=O)Nc1ccc(C(=O)O)cc1` [Example 60, 4-(3-{5-fluoro-2-[3-(4-fluoro-3-trifluoromethylphenyl)-5,5-dimethyl-2,4-dioxoimidazolidin-1-ylmethyl]phenyl}-ureido)benzoic acid] it was 7.28; in that of `CC1(C)C(=O)N(c2ccc(F)c(C(F)(F)F)c2)C(=O)N1Cc1ccc(F)cc1NC(=O)Nc1ccc(C(=O)NS(C)(=O)=O)cc1` [Example 61, N-[4-(3-{5-Fluoro-2-[3-(4-fluoro-3-trifluoromethylphenyl)-5,5-dimethyl-2,4-dioxoimidazolidin-1-ylmethyl]phenyl}ureido)benzoyl]methanesulfonamide], 7.80.

As for `CC1(C)C(=O)N(c2ccc(C#N)c(C3CC3)c2)C(=O)N1Cc1ccc(F)cc1NC(=O)Nc1ccc(S(N)(=O)=O)cc1` [Example 28, 4-(3-{2-[3-(4-Cyano-3-cyclopropylphenyl)-5,5-dimethyl-2,4-dioxoimidazolidin-1-ylmethyl]-5-fluorophenyl}ureido)benzenesulfonamide], the pIC50 is 8.05. Take `CC1(C)C(=O)N(c2ccc(C#N)c(C(F)(F)F)c2)C(=O)N1Cc1ccc(F)cc1NC(=O)Nc1ccc(S(C)(=O)=O)cc1` [Example 19, 1-{2-[3-(4-Cyano-3-trifluoromethylphenyl)-5,5-dimethyl-2,4-dioxoimidazolidin-1-ylmethyl]-5-fluorophenyl}-3-(4-methane-sulfonylphenyl)urea]: the pIC50 was 8.05.

As for `CC1(C)C(=O)N(c2ccc(F)c(C(F)(F)F)c2)C(=O)N1Cc1ccc(F)cc1NC(=O)Nc1ccc(S(C)(=O)=O)cc1` [Example 27, 1-{5-Fluoro-2-[3-(4-fluoro-3-trifluoromethylphenyl)-5,5-dimethyl-2,4-dioxoimidazolidin-1-ylmethyl]phenyl}-3-(4-methanesulfonylphenyl)urea], the pIC50 is 7.89. As for `CC1(C)C(=O)N(c2ccc(F)c(C(F)(F)F)c2)C(=O)N1Cc1ccc(F)cc1NC(=O)Nc1ccc(S(=O)(=O)O)cc1` [Example 25, 4-(3-{5-fluoro-2-[3-(4-fluoro-3-trifluoromethylphenyl)-5,5-dimethyl-2,4-dioxoimidazolidin-1-ylmethyl]phenyl}ureido)benzenesulfonic acid], the figure is 7.24. Consider `CC1(C)C(=O)N(c2ccc(F)c(C(F)(F)F)c2)C(=O)N1Cc1ccc(F)cc1NC(=O)Nc1ccc(S(=O)(=O)O)cc1` [Example 26, Sodium salt of 4-(3-{5-fluoro-2-[3-(4-fluoro-3-trifluoromethylphenyl)-5,5-dimethyl-2,4-dioxoimidazolidin-1-ylmethyl]phenyl}ureido)benzenesulfonic acid], for which the pIC50 was 7.18. Consider `CC1(C)C(=O)N(c2ccc(F)c(C(F)(F)F)c2)C(=O)N1Cc1ccc(F)cc1NC(=O)Nc1ccc(NS(C)(=O)=O)cc1` [Example 31, N-[4-(3-{5-Fluoro-2-[3-(4-fluoro-3-trifluoromethylphenyl)-5,5-dimethyl-2,4-dioxoimidazolidin-1-ylmethyl]phenyl}ureido)phenyl]methanesulfonamide], for which the pIC50 is 7.49.

As to `CC1(C)C(=O)N(c2ccc(F)c(C(F)(F)F)c2)C(=O)N1Cc1ccc(F)cc1NC(=O)Nc1ccc(C(=O)NS(=O)(=O)C(F)(F)F)cc1` [Example 62, C,C,C-trifluoro-N-[4-(3-{5-fluoro-2-[3-(4-fluoro-3-trifluoromethylphenyl)-5,5-dimethyl-2,4-dioxoimidazolidin-1-ylmethyl]phenyl}ureido)benzoyl]methanesulfonamide], the pIC50 was 7.34. On to `CC1(C)C(=O)N(c2ccc(C#N)c(C3CC3)c2)C(=O)N1Cc1cc(C(F)(F)F)ccc1NC(=O)Nc1ccc(S(C)(=O)=O)cc1` [Example 66, 1-{2-[3-(4-Cyano-3-cyclopropylphenyl)-5,5-dimethyl-2,4-dioxoimidazolidin-1-ylmethyl]-4-trifluoromethylphenyl}-3-(4-methanesulfonylphenyl)urea], for which the pIC50 was 8.00. As for `CC1(C)C(=O)N(c2ccc(C#N)c(C3CC3)c2)C(=O)N1Cc1cc(Cl)ccc1NC(=O)Nc1ccc(S(C)(=O)=O)cc1` [Example 67, 1-{4-chloro-2-[3-(4-cyano-3-cyclopropylphenyl)-5,5-dimethyl-2,4-dioxoimidazolidin-1-ylmethyl]phenyl}-3-(4-methanesulfonylphenyl)urea], the figure is 8.22; as for `CC1(C)C(=O)N(c2ccc(C#N)c(C(F)(F)F)c2)C(=O)N1Cc1ccccc1NC(=O)Nc1ccc(C(N)=O)cc1` [Example 16, 4-(3-{2-[3-(4-Cyano-3-trifluoromethylphenyl)-5,5-dimethyl-2,4-dioxoimidazolidin-1-ylmethyl]phenyl}ureido)benzamide], 7.92; as for `CC1(C)C(=O)N(c2ccc(C#N)c(C(F)(F)F)c2)C(=O)N1Cc1ccc(F)cc1NC(=O)Nc1ccc(S(N)(=O)=O)cc1` [Example 22, 4-(3-{2-[3-(4-Cyano-3-trifluoromethylphenyl)-5,5-dimethyl-2,4-dioxoimidazolidin-1-ylmethyl]-5-fluorophenyl}ureido)benzenesulfonamide], 8.05.

Consider `CC1(C)C(=O)N(c2ccc(C#N)c(C(F)(F)F)c2)C(=O)N1Cc1ccc(F)cc1NC(=O)Nc1ccc(Cl)nc1` [Example 20, 1-(6-chloropyridin-3-yl)-3-{2-[3-(4-cyano-3-trifluoromethylphenyl)-5,5-dimethyl-2,4-dioxoimidazolidin-1-ylmethyl]-5-fluorophenyl}urea], for which the pIC50 was 7.80. For `CC1(C)C(=O)N(c2ccc(C#N)c(C3CC3)c2)C(=O)N1Cc1ccc(F)cc1NC(=O)Nc1ccc(S(=O)(=O)CC(=O)O)cc1` [Example 47, [4-(3-{2-[3-(4-Cyano-3-cyclopropylphenyl)-5,5-dimethyl-2,4-dioxoimidazolidin-1-ylmethyl]-5-fluorophenyl}ureido)benzenesulfonyl]acetic acid], the pIC50 is 7.60. In the case of `COc1ccc(CN2C(=O)N(c3ccc(F)c(C(F)(F)F)c3)C(=O)C2(C)C)c(NC(=O)Nc2ccc(S(N)(=O)=O)cc2)c1` [Example 70, 4-(3-{2-[3-(4-fluoro-3-trifluoromethylphenyl)-5,5-dimethyl-2,4-dioxoimidazolidin-1-ylmethyl]-5-methoxyphenyl}ureido)benzenesulfonamide] it was 7.85.

For the origin of these results see patent US20110053947A1, “Arylchalcogenoarylalkyl-substituted imidazolidine-2,4-diones, process for preparation thereof, medicaments comprising these compounds and use thereof” (SANOFI-AVENTIS, priority 2008, published 2011).
